Results taken from PubChem BioAssay (NCI).
Where “and” joins values, the source holds several entries; their conditions need not be identical. Equal entries are not always repeated.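 How tested: cells in 96-well plates exposed to compound for 48 hours at five concentrations. Here, GI50 denotes the concentration required for 50% inhibition of growth. TGI: concentration producing complete growth inhibition.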

Test system: MDA-MB-468 breast
Test: NCI tumour cell line growth inhibition, 48 h

Point of comparison: CCCCCCCCCCCC[n+]1ccc(CCCCCCCCC)cc1, GI50 0.253 µM. Against it:
- c1n[nH]cc1-c1nc2ccc3[nH]ncc3c2c2c1CCCC2 — 5.4-fold higher, 1.36 µM
- CN(CCOc1ccc(C#N)cc1)CCOc1ccc(C#N)cc1 — 110-fold higher, 27.5 µM
- CC(=O)Oc1ccccc1C(=O)Nc1cc(C(C)C)ccc1C — 9.8-fold higher, 2.49 µM
- CC(C)(C)c1ccc(S(=O)(=O)N[C@H]2CC[C@H]3[C@@H]4CCc5cc(OS(=O)(=O)O)ccc5[C@H]4CC[C@]23C)cc1 — 8.1-fold higher, 2.05 µM
- CC(=O)O[C@@H]1CC2C(C)(C)CCCC2(C)C2=C1C(=O)C(C(C)C)=CC2=O (some centres undefined) — 6.1-fold higher, 1.54 µM
- CC(=O)OCC1OC(n2ccc(=O)[nH]c2=O)C(OC(C)=O)C1OC(C)=O (centres undefined) — higher, > 100 µM
- C=C1C(=O)O[C@H]2[C@H]1CC/C(COC(=O)N1CCC[C@H]1C(=O)Nc1ccc(OC)c(C(N)=O)c1O)=C\CC[C@@]1(C)O[C@@H]21 — 4.2-fold higher, 1.06 µM
- CNC(=O)c1cc(N2CCc3cc(NC(=O)Nc4ccc(N5CCOCC5)c(C(F)(F)F)c4)ccc32)ccn1 — 21-fold higher, 5.22 µM
- CCCCN(Cc1ccc(F)cc1)c1ccc(CO)c(Cl)c1 — 1.5-fold lower, 0.167 µM
- CN(C)c1ccc(/C=C/C=C(/C#N)c2ccccc2)cc1 — 69-fold higher, 17.5 µM
- CN(C)c1ccc2cc(-c3ccccc3F)c(N)nc2c1 — 2.1-fold higher, 0.542 µM
- C[C@@H]1COCCN1c1cc(C2(S(C)(=N)=O)CC2)nc(-c2ccnc3[nH]ccc23)n1 (some centres undefined) — 15-fold higher, 3.92 µM
- Oc1ccc(CCCCCCc2ccc(O)cc2)cc1 — 50-fold higher, 12.7 µM
- CC(=C(c1ccc(OCCN(C)C)cc1)c1ccc(OCCN(C)C)cc1)c1ccc(Cl)cc1 — 3.3-fold higher, 0.827 µM
- C[C@@H]1CN(CC(=O)N2CC(C)(C)c3nc(CO)c(Cc4ccc(F)cc4)cc32)[C@@H](CN2CCOC[C@H]2C)CN1 — 43-fold higher, 10.9 µM
- c1cnc2[nH]cc(-c3csc(-c4cn(CCCCN5CCOCC5)c5ccccc45)n3)c2c1 — 8.2-fold higher, 2.07 µM
- O=C1/C(=C/c2ccc(O)cc2)COc2ccc(-c3ccccc3)cc21 — 13-fold higher, 3.32 µM
- CC1OC2CC(=O)OC2C2=C1C(=O)c1c(O)c3c(c(O)c1C2=O)C1CC(O)C3(O)C(C)O1 (centres undefined) — within 1.5-fold, 0.229 µM
- Fc1cccc(COc2ccc(Nc3ncnc4cc(-c5ccc[nH]5)sc34)cc2Cl)c1 — 5.7-fold lower, 0.0446 µM
- OCc1ccc(-c2nn(Cc3ccccc3)c3ccccc23)o1 — 2.3-fold lower, 0.11 µM
- CCN(Cc1ccccc1OC)c1ccc(CO)c(Cl)c1 — 6.8-fold lower, 0.0372 µM
- C[C@H]1[C@H](C)CC[C@]2(C(=O)O)CC[C@]3(C)C(=CC[C@@H]4[C@@]5(C)C/C(=C/c6cccnc6)[C@H](O)C(C)(C)[C@@H]5CC[C@]43C)[C@H]12 — 78-fold higher, 19.8 µM
- C=C1CC[C@@H]2[C@](C)(COC(C)=O)[C@H](OC(C)=O)CC[C@@]2(C)[C@@H]1CC(Nc1ccc(S(=O)(=O)Nc2nccc(C)n2)cc1)C1=CCOC1=O (some centres undefined) — 7.9-fold higher, 1.99 µM
- COc1cc(Nc2nc(N[C@H]3CCCC[C@@H]3N)nc3cc[nH]c(=O)c23)cc(OC)c1 — within 1.5-fold, 0.26 µM
- CN(C)C(=S)N=Nc1c(O)[nH]c2ccccc12 — 1.9-fold higher, 0.482 µM
- Cc1nc2sc(C(=O)Nc3ccccc3)c(N)c2cc1C(=O)/C=C/c1ccccc1 — 6.8-fold higher, 1.73 µM
- COc1ccc(-c2cn(-c3ccccc3)c(-c3ccccc3)n2)cc1OC — 19-fold higher, 4.9 µM
- Nc1cc(N)c(N)cc1N — 7.1-fold higher, 1.8 µM
- Fc1ccc2[nH]c3c(NCCCN4CCOCC4)ncnc3c2c1 — 81-fold higher, 20.4 µM
- Cn1ccnc1C(=O)/C=C/c1ccc(CC(=O)Nc2ccccc2)cc1 — 6.8-fold higher, 1.71 µM

Point of comparison: CC1OC2CC(=O)OC2C2=C1C(=O)c1c(O)c3c(c(O)c1C2=O)C1CC(O)C3(O)C(C)O1 (centres undefined), TGI 0.618 µM. Against it:
- c1n[nH]cc1-c1nc2ccc3[nH]ncc3c2c2c1CCCC2 — 5.8-fold higher, 3.6 µM
- CN(CCOc1ccc(C#N)cc1)CCOc1ccc(C#N)cc1 — higher, > 100 µM
- CC(=O)Oc1ccccc1C(=O)Nc1cc(C(C)C)ccc1C — 14-fold higher, 8.38 µM
- CC(C)(C)c1ccc(S(=O)(=O)N[C@H]2CC[C@H]3[C@@H]4CCc5cc(OS(=O)(=O)O)ccc5[C@H]4CC[C@]23C)cc1 — 9-fold higher, 5.59 µM
- CC(=O)O[C@@H]1CC2C(C)(C)CCCC2(C)C2=C1C(=O)C(C(C)C)=CC2=O (some centres undefined) — 6.2-fold higher, 3.81 µM
- CC(=O)OCC1OC(n2ccc(=O)[nH]c2=O)C(OC(C)=O)C1OC(C)=O (centres undefined) — higher, > 100 µM
- C=C1C(=O)O[C@H]2[C@H]1CC/C(COC(=O)N1CCC[C@H]1C(=O)Nc1ccc(OC)c(C(N)=O)c1O)=C\CC[C@@]1(C)O[C@@H]21 — 5.6-fold higher, 3.46 µM
- CNC(=O)c1cc(N2CCc3cc(NC(=O)Nc4ccc(N5CCOCC5)c(C(F)(F)F)c4)ccc32)ccn1 — higher, > 33.3 µM
- CCCCN(Cc1ccc(F)cc1)c1ccc(CO)c(Cl)c1 — within 1.5-fold, 0.449 µM
- CN(C)c1ccc(/C=C/C=C(/C#N)c2ccccc2)cc1 — 110-fold higher, 67.7 µM
- CN(C)c1ccc2cc(-c3ccccc3F)c(N)nc2c1 — 20-fold higher, 12.2 µM
- C[C@@H]1COCCN1c1cc(C2(S(C)(=N)=O)CC2)nc(-c2ccnc3[nH]ccc23)n1 (some centres undefined) — 40-fold higher, 25 µM
- Oc1ccc(CCCCCCc2ccc(O)cc2)cc1 — 53-fold higher, 32.9 µM
- CC(=C(c1ccc(OCCN(C)C)cc1)c1ccc(OCCN(C)C)cc1)c1ccc(Cl)cc1 — 5.2-fold higher, 3.24 µM
- CCCCCCCCCCCC[n+]1ccc(CCCCCCCCC)cc1 — within 1.5-fold, 0.833 µM
- C[C@@H]1CN(CC(=O)N2CC(C)(C)c3nc(CO)c(Cc4ccc(F)cc4)cc32)[C@@H](CN2CCOC[C@H]2C)CN1 — 45-fold higher, 27.9 µM
- c1cnc2[nH]cc(-c3csc(-c4cn(CCCCN5CCOCC5)c5ccccc45)n3)c2c1 — 6.5-fold higher, 3.99 µM
- O=C1/C(=C/c2ccc(O)cc2)COc2ccc(-c3ccccc3)cc21 — 18-fold higher, 11.4 µM
- Fc1cccc(COc2ccc(Nc3ncnc4cc(-c5ccc[nH]5)sc34)cc2Cl)c1 — 2-fold lower, 0.306 µM
- OCc1ccc(-c2nn(Cc3ccccc3)c3ccccc23)o1 — 2.2-fold lower, 0.287 µM
- CCN(Cc1ccccc1OC)c1ccc(CO)c(Cl)c1 — 2.9-fold lower, 0.214 µM
- C[C@H]1[C@H](C)CC[C@]2(C(=O)O)CC[C@]3(C)C(=CC[C@@H]4[C@@]5(C)C/C(=C/c6cccnc6)[C@H](O)C(C)(C)[C@@H]5CC[C@]43C)[C@H]12 — 130-fold higher, 80.1 µM
- C=C1CC[C@@H]2[C@](C)(COC(C)=O)[C@H](OC(C)=O)CC[C@@]2(C)[C@@H]1CC(Nc1ccc(S(=O)(=O)Nc2nccc(C)n2)cc1)C1=CCOC1=O (some centres undefined) — 7-fold higher, 4.31 µM
- COc1cc(Nc2nc(N[C@H]3CCCC[C@@H]3N)nc3cc[nH]c(=O)c23)cc(OC)c1 — within 1.5-fold, 0.854 µM
- CN(C)C(=S)N=Nc1c(O)[nH]c2ccccc12 — 5.6-fold higher, 3.46 µM
- Cc1nc2sc(C(=O)Nc3ccccc3)c(N)c2cc1C(=O)/C=C/c1ccccc1 — 6.2-fold higher, 3.82 µM
- COc1ccc(-c2cn(-c3ccccc3)c(-c3ccccc3)n2)cc1OC — 35-fold higher, 21.9 µM
- Nc1cc(N)c(N)cc1N — 7.2-fold higher, 4.48 µM
- Fc1ccc2[nH]c3c(NCCCN4CCOCC4)ncnc3c2c1 — higher, > 100 µM
- Cn1ccnc1C(=O)/C=C/c1ccc(CC(=O)Nc2ccccc2)cc1 — 12-fold higher, 7.11 µM

In the case of Cc1cc(C(C#N)c2ccc(Cl)cc2)c(Cl)cc1NC(=O)c1cc(I)cc(I)c1O (centres undefined), the GI50 is reported as 4.31 µM and 15.3 µM.

Cc1cc(C(C#N)c2ccc(Cl)cc2)c(Cl)cc1NC(=O)c1cc(I)cc(I)c1O (centres undefined) was tested, and the TGI was 18 µM and 30 µM.
